Like-named read-outs stand apart in the source and are kept apart here.
Legend:
[1] = cited from earlier work
[2] = Aerosol tolerability analysis of low concentration dosage forms; design: key to Throat Irritation: 1 = none; 5 = strong
Text: Additional observations include maintaining osmolality between about 250 to about 500 mOsmo/kg. The tolerability for formulations with an osmolalty outside this range may be adjusted with modifications in the above formulation parameters and device output and aerosol particle size characteristics.

[3] = cited from earlier work; for AUC over 0-18 hours / Cmax: human, plasma (Rubino et al., 2009)

Cc1ccc(=O)n(-c2ccccc2)c1 [pirfenidone, 5-methyl-1-phenyl-2-(1H)-pyridone]
reduction in overall exposure ([1]; oral, fed-state): 10-15% | oral Cmax in IPF patients ([1]; recommended fed-state): about 7.9 mcg/mL | Cmax ([1]; recommended fed-state, read-out: oral Cmax in IPF patients): ~42 µM | Est. Osmolality ([2]; citrate 5 mM, MgCl2 130 mM, pH 5.5, pirfenidone 16 mg/mL): 490 mOsmo/Kg | Throat Irritation ([2]; citrate 5 mM, MgCl2 130 mM, pH 5.5, pirfenidone 16 mg/mL, 3.7 micron): 3 | Est. Osmolality ([2]; citrate 5 mM, MgCl2 130 mM, saccharin 0.5 mM, pH 5.5, pirfenidone 16 mg/mL): 490 mOsmo/Kg | Throat Irritation ([2]; citrate 5 mM, MgCl2 130 mM, saccharin 0.5 mM, pH 5.5, pirfenidone 16 mg/mL, 3.7 micron): 2 | Est. Osmolality ([2]; citrate 5 mM, NaCl 100 mM, MgCl2 43.3 mM, pH 5.5, pirfenidone 16 mg/mL): 430 mOsmo/Kg | Throat Irritation ([2]; citrate 5 mM, NaCl 100 mM, MgCl2 43.3 mM, pH 5.5, pirfenidone 16 mg/mL, 3.7 micron): 3 | Est. Osmolality ([2]; citrate 5 mM, NaCl 100 mM, MgCl2 43.3 mM, saccharin 0.6 mM, pH 5.5, pirfenidone 16 mg/mL): 430 mOsmo/Kg | Throat Irritation ([2]; citrate 5 mM, NaCl 100 mM, MgCl2 43.3 mM, saccharin 0.6 mM, pH 5.5, pirfenidone 16 mg/mL, 3.7 micron): 2 | Est. Osmolality ([2]; citrate 5 mM, NaCl 100 mM, pH 5.5, pirfenidone 4 mg/mL): 270 mOsmo/Kg | Throat Irritation ([2]; citrate 5 mM, NaCl 100 mM, pH 5.5, pirfenidone 4 mg/mL, 3.2 micron): 2 | Est. Osmolality ([2]; citrate 5 mM, NaCl 100 mM, pH 5.5, pirfenidone 16 mg/mL (3.2 micron entry)): 400 mOsmo/Kg | Est. Osmolality ([2]; citrate 5 mM, NaCl 100 mM, pH 5.5, pirfenidone 16 mg/mL (first 3.7 micron entry)): 400 mOsmo/Kg | Est. Osmolality ([2]; citrate 5 mM, NaCl 100 mM, pH 5.5, pirfenidone 16 mg/mL (second 3.7 micron entry)): 400 mOsmo/Kg | Throat Irritation ([2]; citrate 5 mM, NaCl 100 mM, pH 5.5, pirfenidone 16 mg/mL, 3.2 micron): 2 | Throat Irritation ([2]; citrate 5 mM, NaCl 100 mM, pH 5.5, pirfenidone 16 mg/mL, 3.7 micron (first entry)): 3 | Throat Irritation ([2]; citrate 5 mM, NaCl 100 mM, pH 5.5, pirfenidone 16 mg/mL, 3.7 micron (second entry)): 3 | Est. Osmolality ([2]; citrate 5 mM, NaCl 100 mM, saccharin 0.3 mM, pH 5.5, pirfenidone 4 mg/mL): 270 mOsmo/Kg | Throat Irritation ([2]; citrate 5 mM, NaCl 100 mM, saccharin 0.3 mM, pH 5.5, pirfenidone 4 mg/mL, 3.7 micron): 2 | Est. Osmolality ([2]; citrate 5 mM, NaCl 100 mM, saccharin 0.7 mM, pH 5.5, pirfenidone 16 mg/mL (3.2 micron entry)): 400 mOsmo/Kg | Est. Osmolality ([2]; citrate 5 mM, NaCl 100 mM, saccharin 0.7 mM, pH 5.5, pirfenidone 16 mg/mL (3.7 micron entry)): 400 mOsmo/Kg | Est. Osmolality ([2]; citrate 5 mM, NaCl 100 mM, saccharin 0.7 mM, pH 5.5, pirfenidone 16 mg/mL (4.6 micron entry)): 400 mOsmo/Kg | Throat Irritation ([2]; citrate 5 mM, NaCl 100 mM, saccharin 0.7 mM, pH 5.5, pirfenidone 16 mg/mL, 3.2 micron): 3 | Throat Irritation ([2]; citrate 5 mM, NaCl 100 mM, saccharin 0.7 mM, pH 5.5, pirfenidone 16 mg/mL, 3.7 micron): 2 | Throat Irritation ([2]; citrate 5 mM, NaCl 100 mM, saccharin 0.7 mM, pH 5.5, pirfenidone 16 mg/mL, 4.6 micron (slower output device ~0.5 mL/minute)): 1 | Est. Osmolality ([2]; citrate 5 mM, NaCl 100 mM, saccharin 0.9 mM, pH 5.5, pirfenidone 16 mg/mL (3.2 micron entry)): 400 mOsmo/Kg | Est. Osmolality ([2]; citrate 5 mM, NaCl 100 mM, saccharin 0.9 mM, pH 5.5, pirfenidone 16 mg/mL (3.7 micron entry)): 400 mOsmo/Kg | Throat Irritation ([2]; citrate 5 mM, NaCl 100 mM, saccharin 0.9 mM, pH 5.5, pirfenidone 16 mg/mL, 3.2 micron): 1 | Throat Irritation ([2]; citrate 5 mM, NaCl 100 mM, saccharin 0.9 mM, pH 5.5, pirfenidone 16 mg/mL, 3.7 micron): 2 | Est. Osmolality ([2]; citrate 5 mM, NaCl 150 mM, pH 5.5, pirfenidone 4 mg/mL (3.2 micron entry)): 330 mOsmo/Kg | Est. Osmolality ([2]; citrate 5 mM, NaCl 150 mM, pH 5.5, pirfenidone 4 mg/mL (3.7 micron entry)): 330 mOsmo/Kg | Throat Irritation ([2]; citrate 5 mM, NaCl 150 mM, pH 5.5, pirfenidone 4 mg/mL, 3.2 micron): 1 | Throat Irritation ([2]; citrate 5 mM, NaCl 150 mM, pH 5.5, pirfenidone 4 mg/mL, 3.7 micron): 2 | Est. Osmolality ([2]; citrate 5 mM, NaCl 150 mM, pH 5.5, pirfenidone 16 mg/mL): 400 mOsmo/Kg | Throat Irritation ([2]; citrate 5 mM, NaCl 150 mM, pH 5.5, pirfenidone 16 mg/mL, 3.7 micron): 4 | Est. Osmolality ([2]; citrate 5 mM, NaCl 150 mM, saccharin 0.2 mM, pH 5.5, pirfenidone 4 mg/mL): 330 mOsmo/Kg | Throat Irritation ([2]; citrate 5 mM, NaCl 150 mM, saccharin 0.2 mM, pH 5.5, pirfenidone 4 mg/mL, 3.7 micron): 2 | Est. Osmolality ([2]; citrate 5 mM, NaCl 150 mM, saccharin 0.3 mM, pH 5.5, pirfenidone 4 mg/mL): 330 mOsmo/Kg | Throat Irritation ([2]; citrate 5 mM, NaCl 150 mM, saccharin 0.3 mM, pH 5.5, pirfenidone 4 mg/mL, 3.7 micron): 1 | Est. Osmolality ([2]; citrate 5 mM, NaCl 150 mM, saccharin 0.5 mM, pH 5.5, pirfenidone 16 mg/mL): 400 mOsmo/Kg | Throat Irritation ([2]; citrate 5 mM, NaCl 150 mM, saccharin 0.5 mM, pH 5.5, pirfenidone 16 mg/mL, 3.7 micron): 1 | Est. Osmolality ([2]; citrate 5 mM, NaCl 150 mM, saccharin 0.9 mM, pH 5.5, pirfenidone 16 mg/mL): 400 mOsmo/Kg | Throat Irritation ([2]; citrate 5 mM, NaCl 150 mM, saccharin 0.9 mM, pH 5.5, pirfenidone 16 mg/mL, 3.7 micron): 1 | Est. Osmolality ([2]; no buffer, NaCl 150 mM, pH ND, pirfenidone 16 mg/mL): 375 mOsmo/Kg | Throat Irritation ([2]; no buffer, NaCl 150 mM, pH ND, pirfenidone 16 mg/mL, 3.2 micron): 5 | Est. Osmolality ([2]; no buffer, NaCl 150 mM, saccharin 0.7 mM, pH ND, pirfenidone 16 mg/mL): 375 mOsmo/Kg | Throat Irritation ([2]; no buffer, NaCl 150 mM, saccharin 0.7 mM, pH ND, pirfenidone 16 mg/mL, 3.2 micron): 5 | Est. Osmolality ([2]; phosphate 5 mM, MgCl2 43.3 mM, pH 7, pirfenidone 16 mg/mL): 210 mOsmo/Kg | Throat Irritation ([2]; phosphate 5 mM, MgCl2 43.3 mM, pH 7, pirfenidone 16 mg/mL, 3.7 micron): 5 | Est. Osmolality ([2]; phosphate 5 mM, MgCl2 43.3 mM, saccharin 0.5 mM, pH 7, pirfenidone 16 mg/mL): 210 mOsmo/Kg | Throat Irritation ([2]; phosphate 5 mM, MgCl2 43.3 mM, saccharin 0.5 mM, pH 7, pirfenidone 16 mg/mL, 3.7 micron): 5 | Est. Osmolality ([2]; phosphate 5 mM, NaCl 50 mM, MgCl2 43.3 mM, pH 7, pirfenidone 16 mg/mL): 310 mOsmo/Kg | Throat Irritation ([2]; phosphate 5 mM, NaCl 50 mM, MgCl2 43.3 mM, pH 7, pirfenidone 16 mg/mL, 3.7 micron): 4 | Est. Osmolality ([2]; phosphate 5 mM, NaCl 50 mM, pH 7, pirfenidone 16 mg/mL): 200 mOsmo/Kg | Throat Irritation ([2]; phosphate 5 mM, NaCl 50 mM, pH 7, pirfenidone 16 mg/mL, 3.7 micron): 5 | Est. Osmolality ([2]; phosphate 5 mM, NaCl 150 mM, pH 7, pirfenidone 16 mg/mL): 400 mOsmo/Kg | Throat Irritation ([2]; phosphate 5 mM, NaCl 150 mM, pH 7, pirfenidone 16 mg/mL, 3.7 micron): 3 | T1/2 beta ([3]; aerosol 110 mg RDD, lung tissue, from plasma T1/2, Rubino et al., 2009 fasted-state): 2.5 h | T1/2 beta ([3]; aerosol 110 mg RDD, plasma, Rubino et al., 2009 fasted-state): 2.5 h | T1/2 beta ([3]; aerosol 154 mg RDD, lung tissue, from plasma T1/2, Rubino et al., 2009 fasted-state): 2.5 h | T1/2 beta ([3]; aerosol 154 mg RDD, plasma, Rubino et al., 2009 fasted-state): 2.5 h | T1/2 beta ([3]; aerosol 185 mg RDD, lung tissue, from plasma T1/2, Rubino et al., 2009 fasted-state): 2.5 h | T1/2 beta ([3]; aerosol 185 mg RDD, plasma, Rubino et al., 2009 fasted-state): 2.5 h | AUC over 0-18 hours ([3]; oral 801 mg fasted-state): 67700 ng·h/mL | Cmax ([3]; oral 801 mg fasted-state): 14.2 microgram/mL | AUC over 0-18 hours ([3]; oral 801 mg fed-state): 58900 ng·h/mL | Cmax ([3]; oral 801 mg fed-state): 7.9 microgram/mL | T1/2 beta ([3]; oral 801 mg fasted-state, lung tissue, from plasma T1/2, Rubino et al., 2009): 2.5 h | T1/2 beta ([3]; oral 801 mg fasted-state, plasma, Rubino et al., 2009): 2.5 h | T1/2 beta ([3]; oral 801 mg fed-state, lung tissue, from plasma T1/2, Rubino et al., 2009): 2.4 h | T1/2 beta ([3]; oral 801 mg fed-state, plasma, Rubino et al., 2009): 2.4 h

— patent publication US10028966B2 (Avalyn Pharma Inc., priority 2014, dated 2018)
